Laboratory results reported in patent publication US20150174144A1, “TETRACYCLINE COMPOUNDS FOR TREATING NEURODEGENERATIVE DISORDERS” (PARATEK PHARMACEUTICALS, INC., priority 2012, published 2015).

Experiment: Alkylperoxy radical scavenging assay (AIPH, AE-Trolox oxidation)
Protocol: In a separate assay, alkylperoxy radicals were generated in vitro using the radical generator AIPH (2,2′-azobis-[2-(2-imidazolyn-2-yl)-propane) and the ability of tetracyclines to scavenge these radicals was determined. […] Also, the ability of Compound 1 and minocycline to specifically scavenge peroxynitrite-carbonate radicals was determined.
In this study, alkylperoxy radicals were generated in vitro using the radical generator AIPH (2,2′-azobis-[2-(2-imidazolyn-2-yl)-propane) and the ability of tetracyclines, such as Compound 1, to scavenge these radicals was determined.
Trolox is a known scavenger of peroxyradicals. Structurally similar to a-tocopherol, Trolox reacts with peroxyradicals via a known mechanism with linear kinetics under excess oxygen conditions. In the presence of a competing antioxidant compound, the rate of Trolox oxidation will change based on the relative rate of oxidation and concentration of the competing antioxidant compound (Huang, et al., J. Agric. Food Chem. 2005, 25, 1841-1856). By measuring the effect of antioxidant concentration on the rate of degradation of Trolox, the relative antioxidant capacity of a compound can be determined. This principle is the basis of the widely used antioxidant capacity assay, ORAC (Huang, et al., J. Agric. Food Chem. 2002, 50, 1815-1821). Unlike ORAC which uses a fluorescent dye indicator, the assay described here directly measures the oxidation of the Trolox derivative, 2-aminoethyl-Trolox (AE-Trolox). This method eliminates interference of the fluorescent dye reaction by tetracycline compounds.
To the first column of a 96-well PCR plate (0.2 mL volume) was added 160 μL of TCWS. One well of the first column would equal one IC50 determination. […] To the remaining wells in columns 2-11 was added 80 μL of AET-WS. Using a multichannel pipettor, column 1 was serially diluted in 2-fold dilutions by removing 80 μL from column 1 and transferring with mixing to column 2. Column 2 was then diluted to column 3 and so on until column 11 where 80 μL of the diluted mixture was removed and discarded. Four wells of row 12 were designated as the 0 test compound/0 AIPH control to which 80 μL of AET-WS was added. One well of row 12 per test compound was designated as the 0 test compound control to which 80 μL of the AET-WS was added.
The plate was covered and incubated for 5 minutes at 37° C. upon which the reaction was initiated by addition of 20 μL of AIPH to columns 1-11 using a multichannel pipettor with mixing. The reaction was initiated similarly to the 0 test compound wells of column 12. To the 0 test compound/0 AIPH control wells was added 20 μL of PB buffer. The plate was incubated at 37° C. for 8 minutes (the reaction is linear for 10 minutes) and quenched by addition of 50 μL of AA to all wells with mixing. The plate was placed on ice for 5 minutes. Quenched assay mixtures were stable at room temperature for at least 24 hours.
Each reaction mixture was analyzed for AE-Trolox by 2D-LCMS on a Shimadzu 2010 equipped with a loading column (Shim-pack MAYI-ODS, 4.6×10 mm) and a gradient column Phenomenex Luna C18(2) column, 3 um, 4.6×50 mm. Using an automated 2-position swithching valve, samples were loaded onto the loading column by Pump C and washed for 1 minute with loading buffer. At 1 minute, the valve was switched to elution position (Position B, reversed flow through loading column) and the samples were eluted through the gradient column. The loading buffer (Buffer C) was 10% acetonitrile in water with 0.2% formic acid and the gradient buffers were water+0.2% formic acid (A buffer) and acetonitrile+0.2% formic acid (B buffer). Typical injection volumes were 30 μL.
From the TIC integration of AE-Trolox and AE-Trolox-d4, a ratio was calculated:
Ratio=AUCAE-Trolox/AUCAE-Trolox-d4
Percent inhibition of AE-Trolox oxidation (measured as disappearance of AE-Trolox) was then determined by:
% Inhibition=[1−((Ratio0−Ratiox)/(Ratioo−Ratiof))]*100

## CCc1cc(N(C)C)c2c(c1O)C(=O)C1=C(O)[C@]3(O)C(=O)C(C(N)=O)=C(O)[C@@H](N(C)C)[C@@H]3C[C@@H]1C2 [Compound 1]
5 mM AIPH, 37° C., 8 minutes, read-out: IC50, inhibition of AE-Trolox oxidation (alkylperoxy radical scavenging)
  IC50: 12.6 µM
Relative to Trolox
  Percent Trolox Activity: 71%
  Trolox Equivalents: 0.71
